From US10316017B2, “COT modulators and methods of use thereof” (Gilead Sciences, Inc., priority 2015, dated 2019) come the findings set out here.

Assay [1] has as its target T1, human Cot catalytic domain (30-397 amino acids) (Homo sapiens, UniProt P41279).
T1 construct: Purified recombinant human Cot catalytic domain (30-397 amino acids) was purchased from Cama Biosciences; purchased Cama Biosciences (so in the source)
Put plainly: High Throughput Cot Biochemical Assay (KinEASE TR-FRET). The settings on record: Cot KinEASE TR-FRET, 400 μM ATP; read-out: IC50 HTRF. The procedure, abridged: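 Reaction of 5 nM recombinant human Cot catalytic domain (aa 30-397) with 1 μM STK3 peptide (XL665-labeled) and 400 μM ATP in 10 mM MOPS pH 7.0, 10 mM MgOAc, 1 mM DTT, 0.5 mg/mL BSA, 0.1% DMSO. Phosphopeptide detected by TR-FRET with europium anti-phospho antibody.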
Background: TR-FRET usually uses a lanthanide donor and a delayed reading to cut background.

For assay [2], the system named is TNFα production in LPS-stimulated human monocytes. Put plainly: Cot Monocyte TNFα Cell Based Assay. The settings on record: Homo sapiens, Monocyte, LPS-stimulated human monocytes, TNFα TR-FRET; read-out: EC50 TNF. The procedure, abridged:
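Cells at 5,000/well were pretreated with compound for 1 h at 37 °C (0.5% DMSO final), then stimulated with 50 pg/ml LPS for 4 h at 37 °C. Supernatant TNFα was measured by two-antibody TR-FRET after overnight room-temperature incubation; values are percent of control between unstimulated and stimulated wells.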

Some results are limits rather than exact numbers.

T1 sequence (P41279 30-397): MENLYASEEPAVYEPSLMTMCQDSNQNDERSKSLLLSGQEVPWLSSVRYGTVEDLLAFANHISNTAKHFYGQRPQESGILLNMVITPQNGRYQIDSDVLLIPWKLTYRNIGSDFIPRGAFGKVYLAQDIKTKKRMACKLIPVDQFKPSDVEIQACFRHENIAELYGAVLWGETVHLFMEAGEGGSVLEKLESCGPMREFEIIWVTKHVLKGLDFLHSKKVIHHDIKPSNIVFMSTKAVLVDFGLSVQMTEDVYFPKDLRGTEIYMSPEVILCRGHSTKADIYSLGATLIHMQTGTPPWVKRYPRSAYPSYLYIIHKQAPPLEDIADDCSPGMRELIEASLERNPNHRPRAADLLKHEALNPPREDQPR

Consider `[2H][C@](Nc1cc(Br)c2ncc(C#N)c(N[C@H](CCC#N)c3ccccc3)c2c1)(c1ccc(F)cc1)c1cn(C2CC2)nn1` [Example 937, 8-bromo-4-(((R)-3-cyano-1-phenylpropyl)amino)-6-(((S)-(1-cyclopropyl-1H-1,2,3-triazol-4-yl)(4-fluorophenyl)methyl-d)amino)quinoline-3-carbonitrile], for which the IC50 (commonly the concentration that gives 50% inhibition) in assay [1] was found to be 3 nM. Further, the EC50 (as a rule, the midpoint of the concentration-response curve) in assay [2] was determined as 35 nM.

For `[2H][C@](Nc1cc(Cl)c2ncc(C#N)c(N[C@H](CCC#N)c3ccccc3)c2c1)(c1ccc(F)cc1)c1cn(C2(C(F)(F)F)CC2)nn1` [Example 938, 8-chloro-4-(((R)-3-cyano-1-phenylpropyl)amino)-6-(((S)-(4-fluorophenyl)(1-(1-(trifluoromethyl)cyclopropyl)-1H-1,2,3-triazol-4-yl)methyl-d)amino)quinoline-3-carbonitrile], the IC50 in assay [1] is 6 nM. Moreover, the EC50 in assay [2] was 71 nM.

As for `[2H][C@@](Nc1cc(C(C)=O)c2ncc(C#N)c(N[C@H](CCC#N)c3ccccc3)c2c1)(c1cn(C2CC2)nn1)c1ccccc1Cl` [Example 939, 8-acetyl-6-(((S)-(2-chlorophenyl)(1-cyclopropyl-1H-1,2,3-triazol-4-yl)methyl-d)amino)-4-(((R)-3-cyano-1-phenylpropyl)amino) quinoline-3-carbonitrile], in assay [1], the IC50 came out at 4 nM. The EC50 in assay [2] was determined as 92 nM.

Take `CC[C@@H](Nc1c(C#N)cnc2c(Br)cc(N[C@@H](c3cccc(-c4ncco4)c3)c3cn(C4CC4)nn3)cc12)c1ccccc1` [Example 940, 8-bromo-6-(((S)-(1-cyclopropyl-1H-1,2,3-triazol-4-yl)(3-(oxazol-2-yl)phenyl)methyl)amino)-4-(((R)-1-phenylpropyl)amino) quinoline-3-carbonitrile]: the IC50 in assay [1] was 4 nM. In assay [2], the EC50 amounted to 144 nM.

With `CC[C@@H](Nc1c(C#N)cnc2c(C#N)cc(N[C@@H](c3cccc(-c4ncco4)c3)c3cn(C4CC4)nn3)cc12)c1ccccc1` [Example 941, 6-(((S)-(1-cyclopropyl-1H-1,2,3-triazol-4-yl) (3-(oxazol-2-yl)phenyl)methyl)amino)-4-(((R)-1-phenylpropyl)amino) quinoline-3,8-dicarbonitrile], the IC50 in assay [1] was 1 nM. For the same molecule, the EC50 in assay [2] was 52 nM.

As for `CC[C@@H](Nc1c(C#N)cnc2c(C#N)cc(N[C@@H](c3cccc(C(N)=O)c3)c3cn(C4CC4)nn3)cc12)c1ccccc1` [Example 942, 3-((S)-(1-cyclopropyl-1H-1,2,3-triazol-4-yl) ((3,8-dicyano-4-(((R)-1-phenylpropyl)amino)quinolin-6-yl)amino)methyl)benzamide], in assay [1], the IC50 was determined as 1 nM. Besides, the EC50 in assay [2] is 141 nM.

Turning to `CC[C@@H](Nc1c(C#N)cnc2c(C#N)cc(N[C@@H](c3cccc(C(=O)N4CC(F)(F)C4)c3)c3cn(C4CC4)nn3)cc12)c1ccccc1` [Example 943, 6-(((S)-(1-cyclopropyl-1H-1,2,3-triazol-4-yl)(3-(3,3-difluoroazetidine-1-carbonyl)phenyl)methyl)amino)-4-(((R)-1-phenylpropyl)amino)quinoline-3,8-dicarbonitrile], the IC50 in assay [1] came to 4 nM. Besides, the EC50 in assay [2] stood at 93 nM.

Regarding `CC[C@@H](Nc1c(C#N)cnc2c(Br)cc(N[C@@H](c3cccc(C(N)=O)c3)c3cn(C4CC4)nn3)cc12)c1ccccc1` [Example 944, 3-((S)-((8-bromo-3-cyano-4-(((R)-1-phenylpropyl)amino)quinolin-6-yl)amino)(1-cyc1opropyl-1H-1,2,3-triazol-4-yl)methyl)benzamide], the IC50 in assay [1] was found to be 1 nM. The EC50 in assay [2] came out at 51 nM.

Regarding `N#CCC[C@@H](Nc1c(C#N)cnc2c(C#N)cc(N[C@H](c3cn(C4CC4)nn3)c3ccccc3Cl)cc12)c1ccccc1` [Example 945, 6-(((S)-(2-chlorophenyl)(1-cyclopropyl-1H-1,2,3-triazol-4-yl)methyl)amino)-4-(((R)-3-cyano-1-phenylpropyl)amino)quinoline-3,8-dicarbonitrile], the IC50 in assay [1] worked out at 2 nM. Also, in assay [2], the EC50 worked out at 29 nM.

For `[2H][C@](Nc1cc(Cl)c2ncc(C#N)c(Nc3cccc(Cl)c3C(C)=O)c2c1)(c1ccc(F)cc1)c1cn(C2CC2)nn1` [Example 946, (S)-4-((2-acetyl-3-chlorophenyl)amino)-8-chloro-6-(((1-cyclopropyl-1H-1,2,3-triazol-4-yl) (4-fluorophenyl)methyl-d)amino)quinoline-3-carbonitrile], the IC50 in assay [1] was 745 nM. Further, the EC50 in assay [2] is not below 1000 nM.

On to `[2H][C@](Nc1cc(Cl)c2ncc(C#N)c(Nc3cccc(Cl)c3)c2c1)(c1ccc(F)cc1)c1cn(C2CC2)nn1` [Example 947, (S)-8-chloro-4-((3-chlorophenyl)amino)-6-(((1-cyclopropyl-1H-1,2,3-triazol-4-yl)(4-fluorophenyl)methyl-d)amino)quinoline-3-carbonitrile], for which, in assay [1], the IC50 is 14 nM. For the same molecule, in assay [2], the EC50 was 282 nM.

Consider `CC[C@@H](Nc1c(C#N)cnc2c(C#N)cc(N[C@@H](c3cccc(C(=O)NC)c3)c3cn(C4CC4)nn3)cc12)c1ccccc1` [Example 948, 3-((S)-(1-cyclopropyl-1H-1,2,3-triazol-4-yl) ((3,8-dicyano-4-(((R)-1-phenylpropyl)amino)quinolin-6-yl)amino)methyl)-N-methylbenzamide], for which the IC50 in assay [1] came out at 1 nM. Besides, in assay [2], the EC50 worked out at 78 nM.

With `N#CCC[C@@H](Nc1c(C#N)cnc2c(C#N)cc(N[C@@H](c3ccccc3)c3cn(C4CC4)nn3)cc12)c1ccccc1` [Example 949, 4-(((R)-3-cyano-1-phenylpropyl)amino)-6-(((S)-(1-cyclopropyl-1H-1,2,3-triazol-4-yl)(phenyl)methyl)amino) quinoline-3,8-dicarbonitrile], the IC50 in assay [1] was found to be 1 nM. Moreover, in assay [2], the EC50 worked out at 19 nM.

With `[2H][C@](Nc1cc(-c2cncnc2)c2ncc(C#N)c(N[C@H](CCC(=O)O)c3ccccc3)c2c1)(c1ccc(F)cc1)c1cn(C2CC2)nn1` [Example 950, (R)-4-((3-cyano-6-(((S)-(1-cyclopropyl-1H-1,2,3-triazol-4-yl)(4-fluorophenyl)methyl-d)amino)-8-(pyrimidin-5-yl)quinolin-4-yl)amino)-4-phenylbutanoic acid], in assay [1], the IC50 is not below 10000 nM. In assay [2], the EC50 is not below 1000 nM.

Consider `[2H][C@@](Nc1cc(-c2cncnc2)c2ncc(C#N)c(N[C@H](CCC(=O)O)c3ccccc3)c2c1)(c1cn(C2CC2)nn1)c1ccccc1Cl` [Example 951, (R)-4-((6-(((S)-(2-chlorophenyl)(1-cyclopropyl-1H-1,2,3-triazol-4-yl)methyl-d)amino)-3-cyano-8-(pyrimidin-5-yl)quinolin-4-yl)amino)-4-phenylbutanoic acid], for which the IC50 in assay [1] is not below 10000 nM. Further, in assay [2], the EC50 was not below 1000 nM.

With `CC(C)(C)CNc1c(C#N)cnc2c(C#N)cc(N[C@H](c3cn(C4(C#N)CCC4)nn3)c3ccccc3Cl)cc12` [Example 952, (S)-6-(((2-chlorophenyl)(1-(1-cyanocyclobutyl)-1H-1,2,3-triazol-4-yl)methyl)amino)-4-(neopentylamino)quinoline-3,8-dicarbonitrile], in assay [1], the IC50 worked out at 8 nM. In addition, the EC50 in assay [2] amounted to 134 nM.

`[2H][C@@](Nc1cc(I)c2ncc(C#N)c(NCC(C)(C)C)c2c1)(c1cn(C2CC2)nn1)c1ccccc1Cl` [Example 953, (S)-6-(((2-chlorophenyl)(1-cyclopropyl-1H-1,2,3-triazol-4-yl)methyl-d)amino)-8-iodo-4-(neopentylamino)quinoline-3-carbonitrile]: the IC50 in assay [1] amounted to 111 nM. In addition, the EC50 in assay [2] is not below 1000 nM.

As to `CCN1CCC(n2cc([C@@H](Nc3cc(Cl)c4ncc(C#N)c(NCC(C)(C)C)c4c3)c3ccc(Cl)cc3)nn2)CC1` [Example 954, (S)-8-chloro-6-(((4-chlorophenyl)(1-(1-ethylpiperidin-4-yl)-1H-1,2,3-triazol-4-yl)methyl)amino)-4-(neopentylamino)quinoline-3-carbonitrile], the IC50 in assay [1] stood at 5 nM. For the same molecule, the EC50 in assay [2] amounted to 130 nM.

Turning to `CCN1CCC(n2cc([C@@H](Nc3cc(Cl)c4ncc(C#N)c(N[C@H](CCC#N)c5ccccc5)c4c3)c3ccc(Cl)cc3)nn2)CC1` [Example 955, 8-chloro-6-(((S)-(4-chlorophenyl)(1-(1-ethylpiperidin-4-yl)-1H-1,2,3-triazol-4-yl)methyl)amino)-4-(((R)-3-cyano-1-phenylpropyl)amino)quinoline-3-carbonitrile], in assay [1], the IC50 was 2 nM. Moreover, the EC50 in assay [2] is 31 nM.

As to `CC(C)(C)CNc1c(C#N)cnc2c(C#N)cc(N[C@H](c3cn(C4(C#N)CC4)nn3)c3ccccc3Cl)cc12` [Example 956, (S)-6-(((2-chlorophenyl)(1-(1-cyanocyclopropyl)-1H-1,2,3-triazol-4-yl)methyl)amino)-4-(neopentylamino)quinoline-3,8-dicarbonitrile], the concentration for half-maximal inhibition (IC50) in assay [1] was determined as 5 nM. The EC50 in assay [2] is 61 nM.

`CC(C)(C)CNc1c(C#N)cnc2c(C#N)cc(N[C@H](c3cn(C4(C(N)=O)CC4)nn3)c3ccccc3Cl)cc12` [Example 957, (S)-1-(4-((2-chlorophenyl)((3,8-dicyano-4-(neopentylamino)quinolin-6-yl)amino)methyl)-1H-1,2,3-triazol-1-yl)cyclopropane-1-carboxamide]: in assay [1], the IC50 amounted to 3 nM. In assay [2], the EC50 was found to be 170 nM.
